Measured values published in the supplement of paper PMC10307832.

Legend:
Test in all cases: relative viability (nuclei count vs DMSO), 5 days (fraction); higher = more cells survive
XMD8-85 = compound: CN1CCN(CC1)C2=CC(=C(C=C2)NC3=NC=C4C(=N3)N(C5=CC=CC=C5C(=O)N4C)C)OC [XMD8-85]
In short: (§1)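 Lung cancer cell lines were seeded into 1536-well plates, kept overnight at 37 °C and pinned with five library-drug doses (not always all listed) spaced by √10. After 5 days, nuclei were Hoechst-stained, imaged at 4× and counted with MetaXpress. Viability is treated-well nuclei over vehicle-well nuclei, taken as a median across plates. Plates needed control CV below 25% and at least one doubling.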

4EGI-1 = compound: O=C(O)C(Cc1ccccc1[N+](=O)[O-])=NNc1nc(-c2ccc(Cl)c(Cl)c2)cs1 (mixture of isomers) [4EGI-1]
In short: as §1

XMD8-85 + Alpelisib = compound: CN1CCN(CC1)C2=CC(=C(C=C2)NC3=NC=C4C(=N3)N(C5=CC=CC=C5C(=O)N4C)C)OC [XMD8-85] + Cc1nc(NC(=O)N2CCC[C@H]2C(N)=O)sc1-c1ccnc(C(C)(C)C(F)(F)F)c1 [Alpelisib] (partner 2 µM)
In short: (§2)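 Nuclei were stained with Hoechst during a one-step fixation (final 0.05% Triton X-100, 1% formaldehyde, 1 ug/ml Hoechst) carried out 5 days after dosing, then counted on 4× images. The cells, lung cancer lines in 1536-well plates, had been dosed by pin tool the day after seeding with one drug alone or a fixed anchor-drug dose plus five library-drug doses (not always all listed) in √10 steps. Relative viability is the nuclei count in treated wells divided by that in vehicle wells, and each value is the median of duplicate plates.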

4EGI-1 + Pemetrexed = compound: O=C(O)C(Cc1ccccc1[N+](=O)[O-])=NNc1nc(-c2ccc(Cl)c(Cl)c2)cs1 (mixture of isomers) [4EGI-1] + Nc1nc2[nH]cc(CCc3ccc(C(=O)N[C@@H](CCC(=O)O)C(=O)O)cc3)c2c(=O)[nH]1 [Pemetrexed] (partner 0.2 µM)
In short: as §2

Cell Line	relative viability (XMD8-85; 0.08 µM)	relative viability (XMD8-85; 0.253 µM)	relative viability (XMD8-85; 0.8 µM)	relative viability (XMD8-85; 2.53 µM)	relative viability (XMD8-85; 8 µM)	relative viability (4EGI-1; 0.5 µM)	relative viability (4EGI-1; 5 µM)	relative viability (4EGI-1; 15.81 µM)	relative viability (4EGI-1; 50 µM)	relative viability (XMD8-85 + Alpelisib; first compound 0.08 µM)	relative viability (XMD8-85 + Alpelisib; first compound 0.253 µM)	relative viability (XMD8-85 + Alpelisib; first compound 0.8 µM)	relative viability (XMD8-85 + Alpelisib; first compound 2.53 µM)	relative viability (XMD8-85 + Alpelisib; first compound 8 µM)	relative viability (4EGI-1 + Pemetrexed; first compound 0.5 µM)	relative viability (4EGI-1 + Pemetrexed; first compound 1.581 µM)	relative viability (4EGI-1 + Pemetrexed; first compound 5 µM)	relative viability (4EGI-1 + Pemetrexed; first compound 15.81 µM)	relative viability (4EGI-1 + Pemetrexed; first compound 50 µM)	relative viability (4EGI-1; 1.581 µM)
NCI-H838	0.951	1.02	0.997	0.937	0.754	1.03	1.02	0.912	0.342	0.983	1.03	1.09	1.01	0.446	0.247	0.255	0.244	0.225	0.174	
COR-L 105	0.913	0.861	0.836	0.853	0.411	0.91	0.986	0.644	0.648		1.22	0.926	0.635	0.358	1.2	0.996	1.14	0.905	0.98	0.879
HCC-366	1.03	1.03	1.07	1	0.938	1.02	1.02	0.983	0.411	0.532	0.573	0.42	0.373	0.273	0.154	0.18	0.184	0.147	0.111	0.816
NCI-H650	0.989	1.01	0.948	0.841	0.556	1.12	1.03	0.959	0.753	1.09	0.928	1.17	0.979	0.592	0.966		1.06	0.973	0.725	
NCI-H1299	1.06	1.03	1.01	0.98	0.81	1.02	1.01	1.03	0.828	1.15	0.948	1.08	1.07	0.874						1.01
LCLC-97TM1	0.915	0.991	1.24	1.09	1.05	1.01	1.19	0.963	0.632	0.294	0.238	0.293	0.263	0.36	0.181		0.195	0.165	0.114	
NCI-H1666	0.965	0.963	0.919	0.971	0.998	1.05	1.09	0.781	0.436	1.01	0.829	0.9	1.05	0.74	0.898	0.889	0.891	0.711	0.641	0.942
NCI-H1993	0.861	0.965	1.01	1.12	0.89	1	0.908	0.616	0.573	0.707		0.78	0.561	0.656	0.529	0.569	0.541	0.518	0.481	0.847
BEN	1.03	0.956	0.901	0.7	0.523	1.15	1.06	0.98	0.728	0.871	1.06	0.966	0.662	0.553	0.814	0.785	0.772	0.622	0.432	1.07
HCC-827	1.03	1.04	1.01	1.08	1.04	1.02	1.07		0.922	0.946	1.06	0.939	1.08	0.996	0.27	0.232	0.269		0.228	0.923
HOP-62	1.08	1.06	0.952	1.01		1.02	1.02	0.999	0.744	0.85	0.967	1.04	0.908		0.342	0.389	0.362	0.311	0.318	
NCI-H1355	0.995	0.941	1.01	1.13	0.749	1.04	0.948	0.862	0.566	0.844	0.89	0.807	0.731		0.967	0.927	0.99	0.963	0.589	0.93
A549	0.954	1	1.05	1.05	0.995	1.03	0.977	0.929	0.369	0.744	0.883	0.806	0.807	0.759						0.792
A-427	1.04	1	1.07	1.12	0.74	1.05	1	0.86	0.254	1.09	1.13	1.1	1.11	1	0.982		0.99	0.838	0.228	0.762
NCI-H358	0.881	0.914	0.977	0.984	0.691	1.01	0.998	0.629	0.16	0.957	0.856	1.11	0.854	0.584	0.177	0.187	0.178	0.174	0.165	0.767
NCI-H23	0.917	0.95	0.982	1	0.72	1.1	1.06	1.03	0.298	0.608	0.824	0.741	0.64	0.391	0.819		0.77	0.551	0.274	
LXF-289	0.996	1.05	0.997	1.06	0.979	1.03	0.98	0.864	0.573	1.02	0.964	1.01	1.08	0.939	0.874	0.909	0.941	0.804	0.605	1.01
